According to patent publication US7638631B2, “Methylene dipiperidine derivatives” (Glaxo Group Limited, priority 2004, dated 2009):

Legend:
histamine H3 receptor [1] = molecular target: T1, histamine H3 receptor (Homo sapiens, UniProt Q9Y5N1); test: Histamine H3 functional antagonist assay (method B), [35S]-GTPγS SPA on membranes; type: biochemical; details: membrane from cultured H3 cells, histamine at EC80, averages of a number of experiments, read-out: functional pKi (fpKi), histamine H3 functional antagonist assay (method B) (converted)
T1 construct: expressed in transfected cells; host or cells: CHO K1 cells carrying pSwitch, transfected with pGeneH3, mifepristone-induced; clone 3H3; membranes
T1 sequence (Q9Y5N1 whole entry): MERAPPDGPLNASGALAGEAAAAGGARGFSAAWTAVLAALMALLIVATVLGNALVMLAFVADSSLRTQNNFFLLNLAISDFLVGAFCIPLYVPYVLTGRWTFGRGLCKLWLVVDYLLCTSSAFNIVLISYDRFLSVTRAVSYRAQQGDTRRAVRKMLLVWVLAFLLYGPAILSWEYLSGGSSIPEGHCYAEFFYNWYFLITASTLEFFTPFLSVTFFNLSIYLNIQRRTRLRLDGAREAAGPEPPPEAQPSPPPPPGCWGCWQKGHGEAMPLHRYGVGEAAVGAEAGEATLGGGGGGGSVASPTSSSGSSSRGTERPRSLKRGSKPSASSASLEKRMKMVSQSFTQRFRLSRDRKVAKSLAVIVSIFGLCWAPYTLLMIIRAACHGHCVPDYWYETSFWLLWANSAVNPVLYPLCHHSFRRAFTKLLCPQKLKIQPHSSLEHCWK
Source text: (§1) A membrane preparation containing histamine H3 receptors may be prepared in accordance with the following procedures:
(§2) DNA encoding the human histamine H3 gene (Huvar, A. et al. (1999) Mol. Pharmacol. 55(6), 1101-1107) was cloned into a holding vector, pCDNA3.1 TOPO (InVitrogen) and its cDNA was isolated from this vector by restriction digestion of plasmid DNA with the enzymes BamH1 and Not-1 and ligated into the inducible expression vector pGene (InVitrogen) digested with the same enzymes. The GeneSwitch™ system (a system where in transgene expression is switched off in the absence of an inducer and switched on in the presence of an inducer) was performed as described in U.S. Pat. Nos.: 5,364,791; 5,874,534; and 5,935,934. Ligated DNA was transformed into competent DH5α E. coli host bacterial cells and plated onto Luria Broth (LB) agar containing Zeocin™ (an antibiotic which allows the selection of cells expressing the sh ble gene which is present on pGene and pSwitch) at 50 μg ml^−1. Colonies containing the re-ligated plasmid were identified by restriction analysis. DNA for transfection into mammalian cells was prepared from 250 ml cultures of the host bacterium containing the pGeneH3 plasmid and isolated using a DNA preparation kit (Qiagen Midi-Prep) as per manufacturers guidelines (Qiagen). CHO K1 cells previously transfected with the pSwitch regulatory plasmid (InVitrogen) were seeded at 2×10e6 cells per T75 flask in Complete Medium, containing Hams F12 (GIBCOBRL, Life Technologies) medium supplemented with 10% v/v dialysed foetal bovine serum, L-glutamine, and hygromycin (100 μg ml^−1), 24 hours prior to use. Plasmid DNA was transfected into the cells using Lipofectamine plus according to the manufacturers guidelines (InVitrogen). 48 hours post transfection cells were placed into complete medium supplemented with 500 μg ml^−1 Zeocin™.
10-14 days post selection 10 nM Mifepristone (InVitrogen), was added to the culture medium to induce the expression of the receptor. 18 hours post induction cells were detached from the flask using ethylenediamine tetra-acetic acid (EDTA; 1:5000; InVitrogen), following several washes with phosphate buffered saline pH 7.4 and resuspended in Sorting Medium containing Minimum Essential Medium (MEM), without phenol red, and supplemented with Earles salts and 3% Foetal Clone II (Hyclone). Approximately 1×10e7 cells were examined for receptor expression by staining with a rabbit polyclonal antibody, 4a, raised against the N-terminal domain of the histamine H3 receptor, incubated on ice for 60 minutes, followed by two washes in sorting medium. Receptor bound antibody was detected by incubation of the cells for 60 minutes on ice with a goat anti rabbit antibody, conjugated with Alexa 488 fluorescence marker (Molecular Probes). Following two further washes with Sorting Medium, cells were filtered through a 50 μm Filcon™ (BD Biosciences) and then analysed on a FACS Vantage SE Flow Cytometer fitted with an Automatic Cell Deposition Unit. Control cells were non-induced cells treated in a similar manner. Positively stained cells were sorted as single cells into 96-well plates, containing Complete Medium containing 500 μg ml^−1 Zeocin™ and allowed to expand before reanalysis for receptor expression via antibody and ligand binding studies. One clone, 3H3, was selected for membrane preparation.
All steps of the protocol are carried out at 4° C. and with pre-cooled reagents. The cell pellet is resuspended in 10 volumes of homogenisation buffer (50 mM N-2-hydroxyethylpiperazine-N′-2-ethanesulfonic acid (HEPES), 1 mM ethylenediamine tetra-acetic acid (EDTA), pH 7.4 with KOH, supplemented with 10e-6M leupeptin (acetyl-leucyl-leucyl-arginal; Sigma L2884), 25 μg/ml bacitracin (Sigma B0125), 1 mM phenylmethylsulfonyl fluoride (PMSF) and 2×10e-6M pepstain A (Sigma)). The cells are then homogenised by 2×15 second bursts in a 1 liter glass Waring blender, followed by centrifugation at 500 g for 20 minutes. […]

histamine H3 receptor [2] = molecular target: T1, histamine H3 receptor; test: Histamine H3 functional antagonist assay (method A), [35S]-GTPγS SPA on membranes; type: biochemical; details: membrane from cultured H3 cells, histamine at EC80, averages of a number of experiments, read-out: functional pKi (fpKi), histamine H3 functional antagonist assay (method A) (converted)
Source text: as §1, §2
10-14 days post selection 10 nM Mifepristone (InVitrogen), was added to the culture medium to induce the expression of the receptor. 18 hours post induction cells were detached from the flask using ethylenediamine tetra-acetic acid (EDTA; 1:5000; InVitrogen), following several washes with phosphate buffered saline pH 7.4 and resuspended in Sorting Medium containing Minimum Essential Medium (MEM), without phenol red, and supplemented with Earles salts and 3% Foetal Clone II (Hyclone). […] Receptor bound antibody was detected by incubation of the cells for 60 minutes on ice with a goat anti rabbit antibody, conjugated with Alexa 488 fluorescence marker (Molecular Probes). Following two further washes with Sorting Medium, cells were filtered through a 50 μm Filcon™ (BD Biosciences) and then analysed on a FACS Vantage SE Flow Cytometer fitted with an Automatic Cell Deposition Unit. […]

human H1 receptor = molecular target: T2, human H1 receptor (Homo sapiens, UniProt P35367); test: Histamine H1 functional antagonist assay (FLIPR, Chinese hamster ovary cells); type: cell-based; details: H1 cell line, FLIPR fluorescence, histamine at EC80; Cheng-Prusoff; averages of a number of experiments; read-out: functional pKi (fpKi), histamine H1 functional antagonist assay (converted)
T2 construct: expressed in transfected cells
T2 sequence (P35367 whole entry): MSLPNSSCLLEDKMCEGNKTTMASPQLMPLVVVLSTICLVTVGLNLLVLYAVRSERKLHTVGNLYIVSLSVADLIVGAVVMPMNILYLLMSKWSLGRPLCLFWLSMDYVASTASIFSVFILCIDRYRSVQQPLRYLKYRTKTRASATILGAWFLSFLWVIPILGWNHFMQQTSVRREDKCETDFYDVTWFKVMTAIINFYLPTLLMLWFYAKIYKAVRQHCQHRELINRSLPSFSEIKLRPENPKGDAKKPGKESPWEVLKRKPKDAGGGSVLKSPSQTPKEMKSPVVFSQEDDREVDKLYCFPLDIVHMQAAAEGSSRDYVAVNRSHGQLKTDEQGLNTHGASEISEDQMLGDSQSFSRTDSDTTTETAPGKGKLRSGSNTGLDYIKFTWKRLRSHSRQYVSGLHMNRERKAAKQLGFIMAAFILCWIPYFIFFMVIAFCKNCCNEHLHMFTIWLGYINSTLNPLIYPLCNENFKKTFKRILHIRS
Description: (iii) Generation of Histamine H1 Cell Line
The human H1 receptor was cloned using known procedures described in the literature [Biochem. Biophys. Res. Commun. 1994, 201(2), 894]. Chinese hamster ovary cells stably expressing the human Hi receptor were generated according to known procedures described in the literature [Br. J. Pharmacol. 1996, 117(6), 1071].
(II) Histamine H1 Functional Antagonist Assay
The histamine H1 cell line was seeded into non-coated black-walled clear bottom 384-well tissue culture plates in alpha minimum essential medium (Gibco/Invitrogen, cat no. 22561-021), supplemented with 10% dialysed foetal calf serum (Gibco/Invitrogen cat no. 12480-021) and 2 mM L-glutamine (Gibco/Invitrogen cat no 25030-024) and maintained overnight at 5% CO2, 37° C.
Excess medium was removed from each well to leave 10 μl. 30 μl loading dye (250 μM Brilliant Black, 2 μM Fluo-4 diluted in Tyrodes buffer+probenecid (145 mM NaCl, 2.5 mM KCl, 10 mM HEPES, 10 mM D-glucose, 1.2 mM MgCl2, 1.5 mM CaCl2, 2.5 mM probenecid, pH adjusted to 7.40 with NaOH 1.0 M)) was added to each well and the plates were incubated for 60 minutes at 5% CO2, 37° C.
10 μl of test compound, diluted to the required concentration in Tyrodes buffer+probenecid (or 10 μl Tyrodes buffer+probenecid as a control) was added to each well and the plate incubated for 30 min at 37° C., 5% CO2. The plates were then placed into a FLIPR™ (Molecular Devices, UK) to monitor cell fluorescence (λex=488 nm, λEM=540 nm) in the manner described in Sullivan et al. (In: Lambert DG (ed.), Calcium Signaling Protocols, New Jersey: Humana Press, 1999, 125-136) before and after the addition of 10 μl histamine at a concentration that results in the final assay concentration of histamine being EC80.
Functional antagonism is indicated by a suppression of histamine induced increase in fluorescence, as measured by the FLIPR™ system (Molecular Devices). By means of concentration effect curves, functional affinities are determined using standard pharmacological mathematical analysis.

`CC(=O)c1ccc(N2CCC(CC3CCN(C4CCC4)CC3)CC2)cc1` [Example E25, 1-(4-{4-[(1-Cyclobutyl-4-piperidinyl)methyl]-1-piperidinyl}phenyl)ethanone] was tested. Which Ki (histamine H3 receptor [1]) did it give?
The Ki was no more than 1 nM.

Which Ki (histamine H3 receptor [1]) does the source give for `Cc1noc(-c2ccc(N3CCC(CC4CCN(C5CCC5)CC4)CC3)cn2)n1` [Example E17, 5-{4-[(1-cyclobutyl-4-piperidinyl)methyl]-1-piperidinyl}-2-(3-methyl-1,2,4-oxadiazol-5-yl)pyridine] here?
The Ki was no more than 1 nM.

`Cc1noc(-c2ccc(N3CCC(CC4CCN(C(C)C)CC4)CC3)cn2)n1` [Example E15, 5-(4-{[1-(1-Methylethyl)-4-piperidinyl]methyl}-1-piperidinyl)-2-(3-methyl-1,2,4-oxadiazol-5-yl)pyridine] was tested. Which Ki (histamine H3 receptor [1]) did it give?
Its Ki is no more than 1 nM.

With `CC(C)NC(=O)c1cnc(N2CCC(CC3CCN(C(C)C)CC3)CC2)cn1` [Example E7] as the molecule, how does the Ki (histamine H3 receptor [2]) read?
Its Ki is no more than 10 nM.

For `CCN1CCC(CC2CCN(c3ccc(-c4nc(C)no4)cc3)CC2)CC1` [Example E18], which Ki (histamine H3 receptor [1]) is on record?
Its Ki is no more than 0.316 nM.

What does the source list for `CNC(=O)c1ccc(N2CCC(CC3CCN(C(C)C)CC3)CC2)cn1` [Example E12, N-Methyl-5-(4-{[1-(1-methylethyl)-4-piperidinyl]methyl}-1-piperidinyl)-2-pyridinecarboxamide]?
Ki (histamine H3 receptor [2]): ≤ 1 nM; Ki (histamine H3 receptor [1]): ≤ 1 nM

For `CC(=O)c1ccc(N2CCC(CC3CCN(C4CCC4)CC3)CC2)cn1` [Example E24, 1-(5-{4-[(1-Cyclobutyl-4-piperidinyl)methyl]-1-piperidinyl}-2-pyridinyl)ethanone], which Ki (histamine H3 receptor [1]) is on record?
Its Ki is no more than 0.316 nM.

For `CCN1CCC(CC2CCN(c3ccc(C(C)=O)cc3)CC2)CC1` [Example E27], which Ki (histamine H3 receptor [1]) is on record?
Its Ki is no more than 1 nM.

Which Ki (histamine H3 receptor [1]) does the source give for `N#Cc1ccc(N2CCC(CC3CCN(C4CCC4)CC3)CC2)cn1` [Example E22, 5-{4-[(1-Cyclobutyl-4-piperidinyl)methyl]-1-piperidinyl}-2-pyridinecarbonitrile] here?
The Ki was no more than 0.316 nM.

Which Ki (histamine H3 receptor [2]) does the source give for `Cc1noc(-c2ccc(N3CCC(CC4CCN(C(C)C)CC4)CC3)cc2)n1` [Example E13, 1-(1-Methylethyl)-4-({1-[4-(3-methyl-1,2,4-oxadiazol-5-yl)phenyl]-4-piperidinyl}methyl)piperidine] here?
Its Ki is no more than 0.316 nM.

How did the Ki (histamine H3 receptor [1]) turn out when `Cc1noc(-c2ccc(N3CCC(CC4CCN(C(C)C)CC4)CC3)c(F)c2)n1` [Example E14, 1-[2-Fluoro-4-(3-methyl-1,2,4-oxadiazol-5-yl)phenyl]-4-{[1-(1-methylethyl)-4-piperidinyl]methyl}piperidine] was run?
Its Ki is no more than 1 nM.

With `CC(=O)c1ccc(N2CCC(CC3CCN(C4CCC4)CC3)CC2)nc1` [Example E29] as the molecule, how does the Ki (histamine H3 receptor [1]) read?
The Ki was no more than 1 nM.

With `Cc1noc(-c2ccc(N3CCC(CC4CCN(C(C)C)CC4)CC3)cc2F)n1` [Example E16, 1-[3-fluoro-4-(3-methyl-1,2,4-oxadiazol-5-yl)phenyl]-4-{[1-(1-methylethyl)-4-piperidinyl]methyl}piperidine] as the molecule, how does the Ki (histamine H3 receptor [1]) read?
The Ki was no more than 0.316 nM.

How did the Ki (histamine H3 receptor [1]) turn out when `CNC(=O)c1ccc(N2CCC(CC3CCN(C4CCC4)CC3)CC2)cn1` [Example E11, 5-{4-[(1-Cyclobutyl-4-piperidinyl)methyl]-1-piperidinyl}-N-methyl-2-pyridinecarboxamide] was run?
The Ki was no more than 1 nM.

And the Ki (human H1 receptor)?
The Ki was greater than 1000 nM.

Which Ki (histamine H3 receptor [1]) does the source give for `CC(=O)c1ccc(N2CCC(CC3CCN(C(C)C)CC3)CC2)cc1` [Example E26] here?
Its Ki is no more than 1 nM.

With `CC(C)N1CCC(CC2CCN(c3ccc(C#N)nc3)CC2)CC1` [Example E21, 5-(4-{[1-(1-Methylethyl)-4-piperidinyl]methyl}-1-piperidinyl)-2-pyridinecarbonitrile] as the molecule, how does the Ki (histamine H3 receptor [1]) read?
The Ki was no more than 1 nM.

Which Ki (histamine H3 receptor [1]) does the source give for `CC(C)N1CCC(CC2CCN(c3cnc(C(F)(F)F)nc3)CC2)CC1` [Example E36, 5-(4-{[1-(1-Methylethyl)-4-piperidinyl]methyl}-1-piperidinyl)-2-(trifluoromethyl)pyrimidine] here?
The Ki was no more than 10 nM.

And the Ki (human H1 receptor)?
Its Ki is greater than 1000 nM.

`FC(F)(F)c1ccc(N2CCC(CC3CCN(C4CCC4)CC3)CC2)nn1` [Example E34] was tested. Which Ki (histamine H3 receptor [1]) did it give?
Its Ki is no more than 1 nM.

Which Ki (histamine H3 receptor [1]) does the source give for `CC(=O)c1ccc(N2CCC(CC3CCN(C(C)C)CC3)CC2)cn1` [Example E23, 1-{[5-(4-[1-(1-Methylethyl)-4-piperidinyl]methyl}-1-piperidinyl)-2-pyridinyl]ethanone] here?
The Ki was no more than 1 nM.

Which Ki (histamine H3 receptor [1]) does the source give for `O=C(c1ccc(N2CCC(CC3CCN(C4CCC4)CC3)CC2)cc1)C(F)(F)F` [Example E31] here?
Its Ki is no more than 1 nM.

Which Ki (histamine H3 receptor [1]) does the source give for `CNC(=O)c1cnc(N2CCC(CC3CCN(C4CCC4)CC3)CC2)cn1` [Example E8] here?
Its Ki is no more than 1 nM.

For `CC(C)NC(=O)c1cnc(N2CCC(CC3CCN(C4CCC4)CC3)CC2)cn1` [Example E6, 5-{4-[(1-Cyclobutyl-4-piperidinyl)methyl]-1-piperidinyl}-N-(1-methylethyl)-2-pyrazinecarboxamide], which Ki (histamine H3 receptor [2]) is on record?
Its Ki is no more than 1 nM.

What about the Ki (human H1 receptor) of the same molecule?
Its Ki is greater than 1000 nM.

For `CCNC(=O)c1cnc(N2CCC(CC3CCN(C4CCC4)CC3)CC2)cn1` [Example E9, 5-{4-[(1-cyclobutyl-4-piperidinyl)methyl]-1-piperidinyl}-N-ethyl-2-pyrazinecarboxamide], which Ki (histamine H3 receptor [1]) is on record?
The Ki was no more than 1 nM.

What about the Ki (human H1 receptor) of the same molecule?
The Ki was greater than 1000 nM.
